Experimental findings from patent US7078403B1, “Antiviral agents” (Biota Scientific Management Pty Ltd., priority 1999, dated 2006) are described below.

In brackets after ≈: the same amount, converted by molar mass. Like-named read-outs stand apart in the source and are kept apart here.

Series [1] is described as follows: in vitro. As to conditions: human.
In a further series the test system is Coxsackie A21. As to the kind of experiment: Activity on Coxsackie A21 in mammalian cell culture assay. Type of series: cell-based.
Series [2] can be described thus: in vitro.
The next series relates to Enterovirus 70. In words: Activity on Enterovirus 70 in mammalian cell culture assay. It is filed as cell-based. As to conditions: Enterovirus D.
A short description of series [3]: in vitro. This is another data set of the same source.
A further series concerns HRV type 2. In words: Inhibition of viral cytopathic effect (CPE), visual scoring or neutral red, HRV type 2 in KB cells. It is filed as cell-based, human rhinovirus. As to conditions: for EC50: Enterovirus, read-out: Activity on Rhinovirus Type 2 EC50; for Activity on Rhinovirus Type 2 SI: selectivity index = CC50 or MTC divided by EC50, HRV type 2, KB cells. For orientation: Protection from cytopathic effect is a common read-out in antiviral testing.

The test system of series [4] is Human Rhinovirus strains 1B, 3, 4, 5, 6, 8, 9, 11, 12, 13, 16, 17, 21, 25, 30, 32, 33, 38, 39, 40, 42, 43, 45, 48, 52, 54, 56, 57, 59, 60, 63, 67, 68, 69, 72 …. As to the kind of experiment: Standard CPE reduction assay against a panel of Human Rhinovirus strains. It is filed as cell-based.
In series [5] the test system is Enterovirus strains Poliovirus 2, Echoviruses 2, 3, 9, 21 and 30 and Coxsackie B3. It is filed as cell-based. As to conditions: all Enterovirus strains tested.
The test system of the next series is HRV type 1A. In words: Inhibition of viral cytopathic effect (CPE), visual scoring or neutral red, HRV type 1A in MRC-5 cells. Type of series: cell-based, human rhinovirus. As to conditions: for Activity on Rhinovirus Type 1A SI: selectivity index = CC50 or MTC divided by EC50, HRV type 1A, MRC-5 cells; for EC50: Enterovirus, MRC5, HRV type 1A in MRC-5 cells, read-out: Activity on Rhinovirus Type 1A EC50.

Series [6] concerns human embryo lung (MRC-5) cells. As to the kind of experiment: Cytotoxicity (CC50 or MTC) in uninfected MRC-5 cells. As to conditions: unit not given.
For series [7] the test system is unchanged.
The next series has as its system HRV-2. In words: Time of addition study, CPE inhibition of HRV-2 in KB cells. It is filed as cell-based, human rhinovirus. As to conditions: Rhinovirus A, read-out: EC50 (visual assay).
Setting [8] is: HRV type 2 in KB cells, CPE inhibition.
Where [9] appears, read: mammalian cell culture (cell line not stated).

For the compound `CCO/N=C/c1ccc(OCCC2CCN(c3ccc(Cl)nn3)CC2)cc1` [Compound 1, 4-{2-[1-(6-Chloro-3-pyridazinyl)4-piperidinyl]ethoxy}benzaldehyde O-ethyloxime], the CC50 in “in vitro [1]” is greater than 1 µg/mL; in “in vitro [2]”, greater than 50 µg/mL; in “in vitro [3]”, greater than 50 µg/mL. The half-maximal effective concentration (EC50) in the series with Coxsackie A21 was less than 0.000156 µg/mL; with Enterovirus 70, 0.03 µg/mL (≈ 0.0771 µM); in the series with HRV type 2 (setting [8]) it was less than 1 ng/mL. In addition, the “Activity on Rhinovirus Type 2 SI” value with HRV type 2 was greater than 1000. For the same compound, the “Inhibitory activity compared with Pirodavir” value in series [4] (nearly all HRV strains tested) and in series [5] was “superior activity to Pirodavir” throughout.

Regarding `CCON=Cc1cc(C)c(OCCCc2cc(C)no2)c(C)c1` [Compound 24], the “Activity on Rhinovirus Type 1A EC50” value in the series with HRV type 1A (HRV type 1A in MRC-5 cells, CPE inhibition) was less than 0.16 µg/mL. In addition, in the series with HRV type 1A, the “Activity on Rhinovirus Type 1A SI” value was greater than 320. The “Activity on Rhinovirus Type 1A MTC” value in [6] is listed as greater than 50. In addition, the “Activity on Rhinovirus Type 2 EC50” value in the series with HRV type 2 (setting [8]) is less than 0.05 µg/mL. In addition, the “Activity on Rhinovirus Type 2 SI” value in the series with HRV type 2 is listed as greater than 500. Further, the “Inhibitory activity compared with Pleconaril” value in series [4] (HRV strains panel) was “superior activity to Pleconaril”.

`CCOC(=O)c1ccc(OCCC2CCN(c3ccc(C)nn3)CC2)cc1` [Pirodavir, ethyl 4-[2-[1-(6-methyl-3-pyridazinyl)-4-piperidinyl]-ethoxy]benzoate]: the “Activity on Rhinovirus Type 1A MTC” value in series [7] is greater than 10.00. Besides, the CC50 in the series “in vitro [1]” was greater than 1 µg/mL. Further, the EC50 in the series on HRV type 1A (CPE inhibition) is 0.02 µg/mL (≈ 0.0541 µM); in the series on HRV-2 (HRV2, time of addition 0 hr), 0.004 µg/mL (≈ 0.0108 µM); in the series on HRV-2 (HRV2, time of addition 1 hr post-virus), 0.1 µg/mL (≈ 0.271 µM); in the series on HRV-2 (HRV2, time of addition 2 hr post-virus), greater than 0.1 µg/mL; in the series on HRV-2 (HRV2, time of addition 4 hr post-virus), greater than 0.1 µg/mL; with HRV-2 (HRV2, time of addition 6 hr post-virus), greater than 0.1 µg/mL. For the same compound, the EC50 is greater than 0.1 µg/mL in the series on HRV-2 (HRV2, time of addition 8 hr post-virus); greater than 0.1 µg/mL with HRV-2 (HRV2, time of addition 24 hr post-virus); 0.023 µg/mL (≈ 0.0623 µM) in the series on HRV-2 (HRV2, time of addition −1 hr (pre-treatment)); 3 ng/mL (≈ 0.00812 µM) in the series with HRV type 2 (setting [8]). The “Activity on Rhinovirus Type 1A SI” value with HRV type 1A was determined as 555.74. Also, the “Activity on Rhinovirus Type 2 SI” value in the series with HRV type 2 is recorded as greater than 300.

On to `NC(=O)c1ncn([C@@H]2O[C@H](CO)[C@@H](O)[C@H]2O)n1` [Ribavirin], for which the results for the concentration giving a half-maximal response (EC50) in the series on HRV type 1A (CPE inhibition), in the series with Coxsackie A21 and with Enterovirus 70 were 1.93 µg/mL (≈ 7.9 µM), greater than 100 µg/mL and greater than 100 µg/mL, respectively. For the same compound, in the series on HRV type 1A, the “Activity on Rhinovirus Type 1A SI” value is recorded as 51.03. The CC50 in “in vitro [2]” (setting [9]) and in “in vitro [3]” (setting [9]) was greater than 100 µg/mL each time. The “Activity on Rhinovirus Type 1A MTC” value in series [6] is on record as 98.3.

The EC50 is the concentration at which the effect is half-maximal.
